A short description of series [1]: Tolerability of Auristatin F-hydroxypropylamide (MTD study). It is filed as in vivo, mouse. The source says: The vehicle control group received physiological saline.
Series [2] deals with 5T4 antigen on the cell surface (A431 cells and MDA-MB-231-5T4 OE cells) (human) (UniProt Q13641). The series can be described thus: flow cytometry (MFI) on 5T4-expressing cells at 5 µg/mL, anti-Fc-FITC detection. Background: A flow cytometer gives signals particle by particle.

Non-standard residues stand in square brackets, D forms with d. Residues, ends and D or L forms follow the SMILES beside them. *: point of attachment. Dolaproine = CO[C@@H]([C@@H]1CCCN1)[C@@H](C)C(=O)O; Dil = CC[C@H](C)[C@H](NC)[C@@H](CC(=O)O)OC; NMe2Val = CC(C)[C@@H](C(=O)*)N(C)C; NH(3-hydroxypropyl) = OCCCN*

Chain of UniProt Q13641 (Q13641 32-420): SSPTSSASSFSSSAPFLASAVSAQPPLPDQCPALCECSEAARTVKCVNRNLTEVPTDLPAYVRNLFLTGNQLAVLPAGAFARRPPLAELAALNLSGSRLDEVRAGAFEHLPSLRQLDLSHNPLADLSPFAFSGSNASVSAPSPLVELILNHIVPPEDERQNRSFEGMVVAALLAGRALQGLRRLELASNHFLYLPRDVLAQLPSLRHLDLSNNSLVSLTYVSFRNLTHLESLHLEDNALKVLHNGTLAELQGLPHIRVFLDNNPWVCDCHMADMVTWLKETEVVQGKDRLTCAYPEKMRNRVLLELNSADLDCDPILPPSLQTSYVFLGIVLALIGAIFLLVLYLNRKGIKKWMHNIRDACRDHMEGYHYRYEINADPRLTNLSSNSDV

Take `CC[C@H](C)[C@@H]([C@@H](CC(=O)N1CCC[C@H]1[C@H](OC)[C@@H](C)C(=O)N[C@@H](Cc1ccccc1)C(=O)NCCCO)OC)N(C)C(=O)[C@@H](NC(=O)[C@H](C(C)C)N(C)C)C(C)C` [AF-HPA, auristatin F hydroxypropyl amide] (NMe2Val-V[Dil][Dolaproine]F-{NH(3-hydroxypropyl)}): in series [1] (single IV dose 3.2 mg/kg), the “Animals survived by the end of the study (Day 21)” value is reported as 2 out of 6. For the same compound, the Tolerability result in series [1] (single IV dose 4.7 mg/kg) is “exceeded the maximum tolerated dose”.
As to unrelated scFvFc fusion protein, the fold less binding than the anti-5T4 scFvFc molecules in series [2] was found to be 200 fold.

The values are drawn from US20240082417A1, “PROTEIN-POLYMER DRUG CONJUGATES” (priority 2022, published 2024).
